Experimental data taken from a compilation of properties of binary mixtures (doi:10.1016/j.molliq.2022.120193).

Experiment: xn = mol fraction of the nth substance listed
Conditions: 100 kPa

CCCCn1cc[n+](C)c1C.O=S(=O)([N-]S(=O)(=O)C(F)(F)F)C(F)(F)F + CCCC[n+]1ccn(C)c1C.F[B-](F)(F)F
electrical conductivity [S/m]
Conditions | x1 = 0.1 | x1 = 0.2 | x1 = 0.3 | x1 = 0.4 | x1 = 0.5 | x1 = 0.6 | x1 = 0.7 | x1 = 0.8 | x1 = 0.9 | x1 = 1
313.15 K | 0.231 | 0.249 | 0.265 | 0.305 | – | 0.32 | 0.35 | 0.403 | 0.476 | 0.465
318.15 K | 0.301 | 0.32 | – | 0.378 | – | 0.394 | 0.432 | – | 0.572 | 0.566
323.15 K | 0.381 | – | – | – | 0.476 | 0.482 | 0.521 | 0.59 | 0.683 | 0.665
328.15 K | 0.474 | 0.49 | 0.508 | 0.54 | 0.572 | 0.581 | 0.617 | 0.698 | 0.812 | 0.777
333.15 K | 0.587 | 0.6 | 0.617 | 0.645 | 0.68 | – | 0.709 | 0.816 | 0.94 | 0.901
338.15 K | 0.707 | 0.715 | – | – | 0.796 | – | 0.839 | 0.949 | 1.08 | 1.04
343.15 K | 0.844 | 0.848 | 0.859 | 0.894 | 0.931 | 0.952 | 0.963 | 1.08 | 1.23 | 1.18
348.15 K | 0.997 | 0.995 | 1.01 | – | 1.07 | 1.08 | 1.09 | – | – | 1.37
353.15 K | 1.16 | 1.15 | 1.16 | 1.18 | 1.23 | 1.23 | 1.24 | – | 1.56 | 1.54
358.15 K | – | 1.31 | 1.32 | 1.34 | – | 1.4 | – | – | 1.74 | –
363.15 K | 1.5 | – | 1.5 | 1.51 | – | 1.57 | 1.59 | 1.64 | 1.91 | 1.87

CC[N+](C)(CC)CCOC.F[B-](F)(F)F + CC[N+](C)(CC)CCOC.O=S(=O)([N-]S(=O)(=O)C(F)(F)F)C(F)(F)F
electrical conductivity [S/m]
Conditions | x2 = 0 | x2 = 0.1 | x2 = 0.2 | x2 = 0.3 | x2 = 0.4 | x2 = 0.5 | x2 = 0.6 | x2 = 0.7 | x2 = 0.8 | x2 = 0.9
293.15 K | 0.096 | – | 0.133 | 0.14 | 0.149 | 0.161 | 0.175 | 0.168 | 0.184 | 0.198
298.15 K | 0.136 | 0.161 | 0.174 | – | 0.202 | 0.214 | 0.234 | – | 0.251 | –
303.15 K | 0.19 | 0.218 | 0.233 | 0.25 | 0.264 | 0.277 | 0.304 | 0.298 | 0.324 | –
308.15 K | 0.255 | 0.292 | 0.305 | – | 0.338 | – | – | 0.381 | 0.407 | 0.423
313.15 K | 0.343 | 0.381 | – | – | 0.425 | 0.444 | 0.47 | 0.472 | – | 0.509
318.15 K | 0.437 | 0.483 | 0.485 | 0.506 | – | 0.541 | 0.569 | – | 0.599 | 0.625
323.15 K | 0.553 | 0.596 | – | – | 0.636 | 0.652 | 0.684 | 0.687 | 0.709 | 0.731
328.15 K | 0.68 | 0.737 | – | 0.734 | 0.763 | 0.779 | – | 0.804 | 0.833 | 0.863
333.15 K | 0.829 | – | 0.858 | 0.873 | 0.897 | – | 0.934 | – | 0.964 | 0.993
338.15 K | 1 | 1.06 | 1.02 | 1.02 | 1.04 | 1.06 | 1.08 | – | 1.11 | 1.13
343.15 K | 1.18 | 1.24 | – | – | 1.2 | 1.22 | 1.24 | 1.23 | – | 1.29

CCCC[n+]1ccn(C)c1C.F[B-](F)(F)F + CC[N+](C)(CC)CCOC.F[B-](F)(F)F
x2 = 0
Conditions | electrical conductivity [S/m]
318.15 K | 0.153
323.15 K | 0.202
328.15 K | 0.26
353.15 K | 0.749
358.15 K | 0.867
363.15 K | 0.995

CC[N+](C)(CC)CCOC.F[B-](F)(F)F + CCCC[n+]1ccn(C)c1C.F[B-](F)(F)F
electrical conductivity [S/m]
Conditions | x1 = 0.1 | x1 = 0.2 | x1 = 0.3 | x1 = 0.4 | x1 = 0.5 | x1 = 0.6 | x1 = 0.7 | x1 = 0.8 | x1 = 0.9 | x1 = 1
313.15 K | 0.231 | 0.244 | 0.282 | – | 0.29 | 0.296 | – | 0.321 | 0.348 | 0.343
318.15 K | 0.305 | – | 0.354 | – | – | 0.38 | 0.392 | – | 0.445 | –
323.15 K | 0.392 | 0.404 | 0.437 | 0.445 | 0.465 | 0.472 | 0.498 | 0.519 | – | 0.553
328.15 K | – | – | 0.534 | 0.541 | – | 0.579 | 0.614 | 0.639 | – | 0.68
333.15 K | 0.604 | 0.613 | 0.643 | 0.67 | – | 0.72 | 0.766 | 0.782 | 0.822 | 0.829
338.15 K | 0.727 | 0.736 | 0.758 | – | 0.79 | 0.828 | 0.884 | 0.939 | 0.995 | 1
343.15 K | 0.861 | 0.871 | 0.9 | – | 0.936 | 0.978 | 1.03 | 1.09 | – | 1.18
348.15 K | 1.02 | 1.03 | 1.05 | 1.07 | 1.09 | – | 1.2 | 1.27 | 1.37 | 1.39
353.15 K | 1.16 | – | – | – | – | 1.32 | – | 1.42 | 1.59 | –
358.15 K | 1.31 | 1.35 | – | – | 1.46 | 1.51 | 1.56 | – | 1.82 | 1.86
363.15 K | 1.5 | 1.53 | 1.58 | 1.62 | – | 1.73 | 1.77 | 1.82 | 2.01 | –

CCCCn1cc[n+](C)c1C.O=S(=O)([N-]S(=O)(=O)C(F)(F)F)C(F)(F)F + CC[N+](C)(CC)CCOC.O=S(=O)([N-]S(=O)(=O)C(F)(F)F)C(F)(F)F
electrical conductivity [S/m]
Conditions | x2 = 0 | x2 = 0.1 | x2 = 0.2 | x2 = 0.3 | x2 = 0.4 | x2 = 0.5 | x2 = 0.6 | x2 = 0.7 | x2 = 0.8 | x2 = 0.9
293.15 K | – | 0.191 | – | 0.195 | 0.201 | – | 0.206 | 0.211 | 0.21 | 0.21
298.15 K | – | 0.253 | – | 0.259 | 0.263 | 0.264 | 0.268 | 0.275 | 0.28 | 0.28
303.15 K | 0.302 | 0.323 | 0.326 | 0.325 | 0.336 | 0.337 | 0.345 | 0.355 | 0.351 | 0.351
308.15 K | – | 0.402 | 0.403 | 0.407 | 0.414 | 0.423 | 0.426 | 0.432 | 0.434 | 0.434
313.15 K | 0.465 | 0.498 | 0.497 | 0.499 | 0.509 | – | 0.515 | – | 0.56 | 0.56
318.15 K | 0.566 | 0.589 | – | 0.601 | 0.611 | 0.616 | 0.62 | 0.638 | – | 0.648
323.15 K | – | 0.705 | 0.71 | 0.722 | 0.726 | 0.735 | 0.742 | – | 0.763 | 0.763
328.15 K | – | – | 0.825 | – | – | 0.865 | 0.87 | 0.876 | 0.902 | –
333.15 K | 0.901 | 0.965 | 0.962 | 0.969 | 0.973 | 0.991 | – | 1.01 | 1.02 | 1.02
338.15 K | 1.04 | 1.1 | – | 1.12 | 1.12 | 1.13 | 1.13 | 1.16 | 1.17 | 1.17
343.15 K | 1.18 | – | – | 1.27 | 1.27 | 1.28 | 1.29 | 1.32 | – | 1.33

CCCC[n+]1ccn(C)c1C.F[B-](F)(F)F + FC(S(=O)(=O)[N-]S(=O)(=O)C(F)(F)F)(F)F.C(CCC)N1C(=[N+](C=C1)C)C
x2 = 0
Conditions | electrical conductivity [S/m]
318.15 K | 0.153
333.15 K | 0.335
343.15 K | 0.531
348.15 K | 0.63
353.15 K | 0.749
358.15 K | 0.867
363.15 K | 0.995

CC[N+](C)(CC)CCOC.O=S(=O)([N-]S(=O)(=O)C(F)(F)F)C(F)(F)F + CC[N+](C)(CC)CCOC.F[B-](F)(F)F
x1 = 1
Conditions | electrical conductivity [S/m]
293.15 K | 0.237
303.15 K | 0.382
308.15 K | 0.476
313.15 K | 0.572
318.15 K | 0.683
323.15 K | 0.794
328.15 K | 0.922
333.15 K | 1.06
338.15 K | 1.2
343.15 K | 1.32

CC[N+](C)(CC)CCOC.O=S(=O)([N-]S(=O)(=O)C(F)(F)F)C(F)(F)F + FC(S(=O)(=O)[N-]S(=O)(=O)C(F)(F)F)(F)F.C(CCC)N1C(=[N+](C=C1)C)C
x1 = 1
Conditions | electrical conductivity [S/m]
293.15 K | 0.237
298.15 K | 0.311
303.15 K | 0.382
308.15 K | 0.476
313.15 K | 0.572
318.15 K | 0.683
323.15 K | 0.794
328.15 K | 0.922
333.15 K | 1.06
338.15 K | 1.2
343.15 K | 1.32
